The text below walks through data of patent US10543212B2, “Substituted amines for treating cardiac diseases” (Cardurion Pharmaceuticals, LLC, priority 2017, dated 2020).

The experiment addresses T1, Full-length, GST-tagged, human CaMKIIδ (Homo sapiens, UniProt Q13557).
T1 construct: Full-Length, Glutathione-S-Transferase(GST)-Tagged, Human CaMKIIδ was purchased from Carna Biosciences; purchased Carna Biosciences 02-111
As to the kind of experiment: CaMKIIδ binding assay (TR-FRET with BODIPY-labeled probe ligand). The essentials:
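Compounds were tested as 4-fold, eight-point series for 1 hr at room temperature, and IC50 was obtained by logistic fitting against a 3 μM parent-compound control. Signal came from displacement of a 300 nM BODIPY ligand from 0.5 nM GST-CaMKIIδ, detected via Tb-anti-GST in calmodulin/Ca2+ (pH 7.6).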
For orientation: TR-FRET usually uses a lanthanide donor and a delayed reading to cut background.

The mark [1] stands for this setting: CaMKIIδ binding assay, results of Table 2.
Setting [2] is: CaMKIIδ binding assay, activity class per Table 2.

Bounds are passed on as bounds.

T1 sequence (Q13557 1-478 isoform Q13557-12): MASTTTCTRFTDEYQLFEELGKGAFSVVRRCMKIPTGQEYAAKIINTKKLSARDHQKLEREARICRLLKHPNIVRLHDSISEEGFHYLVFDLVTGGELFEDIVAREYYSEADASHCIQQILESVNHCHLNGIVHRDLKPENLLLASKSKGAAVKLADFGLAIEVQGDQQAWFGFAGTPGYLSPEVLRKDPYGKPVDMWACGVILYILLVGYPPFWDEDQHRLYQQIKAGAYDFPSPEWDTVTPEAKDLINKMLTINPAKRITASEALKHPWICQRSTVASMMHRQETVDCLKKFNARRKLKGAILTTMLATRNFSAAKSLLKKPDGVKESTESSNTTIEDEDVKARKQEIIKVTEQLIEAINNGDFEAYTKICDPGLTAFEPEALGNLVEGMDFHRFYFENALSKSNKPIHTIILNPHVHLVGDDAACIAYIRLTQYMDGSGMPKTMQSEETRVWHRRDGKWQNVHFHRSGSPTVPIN

For orientation: IC50 means the concentration at which inhibition is half-maximal. For the compound `COc1nc(N2CCCN(C(=O)OC(C)(C)C)CC2)ccc1Nc1ncc(-c2ccc(Cl)c(O[C@@H](C)Cn3cnnn3)c2)cn1` [Example 665, tert-butyl (S)-4-(5-((5-(3-((1-(1H-tetrazol-1-yl)propan-2-yl)oxy)-4-chlorophenyl)pyrimidin-2-yl)amino)-6-methoxypyridin-2-yl)-1,4-diazepane-1-carboxylate], the IC50 (Table 2, activity class for CaMKIIδ) was no less than 100 nM.

Under setting [1], `C[C@@H](Cn1cnnn1)Oc1cc(-c2cnc(Nc3cn(CC4CCN(C(=O)OC(C)(C)C)C4)nc3C(F)(F)F)nc2)ccc1Cl` (stereo partly drawn) [Example 571, tert-butyl 3-((4-((5-(3-(((S)-1-(1H-tetrazol-1-yl)propan-2-yl)oxy)-4-chlorophenyl)pyrimidin-2-yl)amino)-3-(trifluoromethyl)-1H-pyrazol-1-yl)methyl) pyrrolidine-1-carboxylate] showed an IC50 of no less than 100 nM. Same read-out and setting: in the case of `Cc1cnc(N2CCC(N3CCOCC3)CC2)cc1Nc1ncc(-c2ccc(Cl)c(O[C@@H](C)Cn3cnnn3)c2)cn1` [Example 478, (S)-5-(3-((1-(1H-tetrazol-1-yl)propan-2-yl)oxy)-4-chlorophenyl)-N-(5-methyl-2-(4-morpholinopiperidin-1-yl)pyridin-4-yl)pyrimidin-2-amine] it was 10 to 100 nM. `C[C@@H](Cn1cnnn1)Oc1cc(-c2cnc(Nc3cn(CCNS(C)(=O)=O)nc3C(F)(F)F)nc2)ccc1Cl` [Example 884, (S)-N-(2-(4-((5-(3-((1-(1H-tetrazol-1-yl)propan-2-yl)oxy)-4-chlorophenyl)pyrimidin-2-yl)amino)-3-(trifluoromethyl)-1H-pyrazol-1-yl)ethyl)methanesulfonamide] returned a half-inhibitory concentration (IC50) under setting [2] of 10 to 100 nM. On the same count and under the same terms, in the case of `C[C@@H](Cn1cnnn1)Oc1cc(-c2cnc(Nc3cn(C(C)(C)CO)nc3OCC(F)(F)F)nc2)ccc1Cl` [Example 883, (S)-2-(4-((5-(3-((1-(1H-tetrazol-1-yl)propan-2-yl)oxy)-4-chlorophenyl)pyrimidin-2-yl)amino)-3-(2,2,2-trifluoroethoxy)-1H-pyrazol-1-yl)-2-methylpropan-1-ol] it was less than 10 nM. In turn, `COc1ccc(-n2cc(Nc3ncc(-c4ccc(Cl)c(O[C@@H](C)Cn5cnnn5)c4)cn3)c(C(F)(F)F)n2)cn1` [Example 867, (S)-5-(3-((1-(1H-tetrazol-1-yl)propan-2-yl)oxy)-4-chlorophenyl)-N-(1-(6-methoxypyridin-3-yl)-3-(trifluoromethyl)-1H-pyrazol-4-yl)pyrimidin-2-amine] displayed an IC50 (Table 2, CaMKIIδ binding assay, activity given as class A/B/C) of no less than 100 nM. `COc1cc2c(cc1Nc1ncc(-c3ccc(Cl)c(O[C@@H](C)Cn4cnnn4)c3)cn1)CCN(C(=O)CN(C)C)C2` [Example 459, (S)-1-(6-((5-(3-((1-(1H-tetrazol-1-yl)propan-2-yl)oxy)-4-chlorophenyl)pyrimidin-2-yl)amino)-7-methoxy-3,4-dihydroisoquinolin-2(1H)-yl)-2-(dimethylamino)ethan-1-one] had a half-inhibitory concentration (IC50) under setting [1] of less than 10 nM. `CCOC(=O)C1(n2cc(Nc3ncc(-c4ccc(Cl)c(O[C@@H](C)Cn5cnnn5)c4)cn3)c(OCC(F)(F)F)n2)CCC1` [Example 915, ethyl (S)-1-(4-((5-(3-((1-(1H-tetrazol-1-yl)propan-2-yl)oxy)-4-chlorophenyl)pyrimidin-2-yl)amino)-3-(2,2,2-trifluoroethoxy)-1H-pyrazol-1-yl)cyclobutane-1-carboxylate]: under setting [2], the IC50 was less than 10 nM.

The compound `C[C@@H](Cn1cnnn1)Oc1cc(-c2cnc(Nc3cc4c(cc3Cl)CCN(C3COC3)CC4)nc2)ccc1C#N` [Example 539, (S)-2-((1-(1H-tetrazol-1-yl)propan-2-yl)oxy)-4-(2-((8-chloro-3-(oxetan-3-yl)-2,3,4,5-tetrahydro-1H-benzo[d]azepin-7-yl)amino)pyrimidin-5-yl)benzonitrile] had an IC50 under setting [1] of less than 10 nM. For `Cc1ncc(N2CC(O)C2)cc1Nc1ncc(-c2ccc(Cl)c(O[C@@H](C)Cn3cnnn3)c2)cn1` [Example 523, (S)-1-(5-((5-(3-((1-(1H-tetrazol-1-yl)propan-2-yl)oxy)-4-chlorophenyl)pyrimidin-2-yl)amino)-6-methylpyridin-3-yl)azetidin-3-ol], under setting [1], the IC50 is 10 to 100 nM.
